ChEMBL document CHEMBL3797055, “Glabridin-chalcone hybrid molecules: drug resistance reversal agent against clinical isolates of methicillin-resistant Staphylococcus aureus” (Medchemcomm, 2016)
Values after ≈ are worked out from the molar mass of the structure shown.

Key:
[1] = test system: Staphylococcus aureus; assay: Bactericidal activity against clinical isolates of methicillin-resistant Staphylococcus aureus ST2071 assessed as reduction in viability at MIC after 24 hrs by time kill kinetic analysis relative to control; type: functional
[2] = test system: Staphylococcus aureus; assay: Antibacterial activity against Staphylococcus aureus MTCC 96 infected in ip dosed Swiss mouse assessed as reduction in bacterial load in spleen administered qd for 7 days post infection measured 24 hrs after last dose by plate counting analysis; type: functional, organism-based
[3] = test system: Staphylococcus aureus; assay: Potentiation of norfloxacin-induced antibacterial activity against clinical isolates of methicillin-resistant Staphylococcus aureus ST10342 assessed as norfloxacin MIC by checkerboard assay; type: functional
[4] = test system: Staphylococcus aureus; assay: Ratio of MIC for clinical isolates of methicillin-resistant Staphylococcus aureus ST10342 to MIC for clinical isolates of methicillin-resistant Staphylococcus aureus ST10342 in presence of norfloxacin; type: functional
[5] = test system: Staphylococcus aureus; assay: Antibacterial activity against clinical isolates of methicillin-resistant Staphylococcus aureus P4650 by checkerboard assay in presence of norfloxacin; type: functional
[6] = test system: Staphylococcus aureus; assay: Antibacterial activity against Staphylococcus aureus MTCC 96 infected in ip dosed Swiss mouse assessed as reduction in bacterial load in lung administered qd for 7 days post infection measured 24 hrs after last dose by plate counting analysis; type: functional, organism-based
[7] = test system: Staphylococcus aureus; assay: Antibacterial activity against clinical isolates of methicillin-resistant Staphylococcus aureus ST10760 by broth microdilution assay; type: functional
[8] = test system: Staphylococcus aureus; assay: Potentiation of norfloxacin-induced antibacterial activity against clinical isolates of methicillin-resistant Staphylococcus aureus P4650 assessed as reduction in norfloxacin MIC by checkerboard assay relative to control; type: functional
[9] = test system: Staphylococcus aureus; assay: Potentiation of norfloxacin-induced antibacterial activity against clinical isolates of methicillin-resistant Staphylococcus aureus ST10760 assessed as reduction in norfloxacin MIC by checkerboard assay relative to control; type: functional
[10] = test system: Staphylococcus aureus; assay: Antibacterial activity against clinical isolates of methicillin-resistant Staphylococcus aureus ST10760 by checkerboard assay in presence of norfloxacin; type: functional
[11] = test system: Staphylococcus aureus; assay: Antibacterial activity against clinical isolates of methicillin-resistant Staphylococcus aureus ST10342 by broth microdilution assay; type: functional
[12] = test system: Staphylococcus aureus; assay: Bactericidal activity against clinical isolates of methicillin-resistant Staphylococcus aureus ST2071 assessed as reduction in viability at 0.5 MIC after 24 hrs by time kill kinetic analysis relative to control; type: functional
[13] = test system: Staphylococcus aureus; assay: Antibacterial activity against clinical isolates of methicillin-resistant Staphylococcus aureus P4423 by checkerboard assay in presence of norfloxacin; type: functional
[14] = test system: Staphylococcus aureus; assay: Potentiation of norfloxacin-induced antibacterial activity against clinical isolates of methicillin-resistant Staphylococcus aureus P4629 assessed as norfloxacin MIC by checkerboard assay; type: functional
[15] = test system: Staphylococcus aureus; assay: Antibacterial activity against Staphylococcus aureus MTCC 96 by broth microdilution assay; type: functional
[16] = test system: Staphylococcus aureus; assay: Antibacterial activity against clinical isolates of methicillin-resistant Staphylococcus aureus ST2071 by broth microdilution assay; type: functional
[17] = test system: Staphylococcus aureus; assay: Potentiation of norfloxacin-induced antibacterial activity against clinical isolates of methicillin-resistant Staphylococcus aureus P4423 assessed as norfloxacin MIC by checkerboard assay; type: functional
[18] = test system: Staphylococcus aureus; assay: Ratio of MIC for clinical isolates of methicillin-resistant Staphylococcus aureus ST10760 to MIC for clinical isolates of methicillin-resistant Staphylococcus aureus ST10760 in presence of norfloxacin; type: functional
[19] = test system: Staphylococcus aureus; assay: Ratio of MIC for clinical isolates of methicillin-resistant Staphylococcus aureus P4423 to MIC for clinical isolates of methicillin-resistant Staphylococcus aureus P4423 in presence of norfloxacin; type: functional
[20] = test system: Staphylococcus aureus; assay: Antibacterial activity against clinical isolates of methicillin-resistant Staphylococcus aureus P4423 by broth microdilution assay; type: functional
[21] = test system: Staphylococcus aureus; assay: Potentiation of norfloxacin-induced antibacterial activity against clinical isolates of methicillin-resistant Staphylococcus aureus ST10760 assessed as norfloxacin MIC by checkerboard assay; type: functional
[22] = test system: Staphylococcus aureus; assay: Antibacterial activity against Staphylococcus aureus MTCC 96 infected in ip dosed Swiss mouse assessed as reduction in bacterial load in blood administered qd for 7 days post infection measured 24 hrs after last dose by plate counting analysis; type: functional, organism-based
[23] = test system: Staphylococcus aureus; assay: Potentiation of norfloxacin-induced antibacterial activity against clinical isolates of methicillin-resistant Staphylococcus aureus P4629 assessed as reduction in norfloxacin MIC by checkerboard assay relative to control; type: functional
[24] = test system: Staphylococcus aureus; assay: Potentiation of norfloxacin-induced antibacterial activity against clinical isolates of methicillin-resistant Staphylococcus aureus P4650 assessed as norfloxacin MIC by checkerboard assay; type: functional
[25] = test system: Staphylococcus aureus; assay: Antibacterial activity against clinical isolates of methicillin-resistant Staphylococcus aureus ST10342 by checkerboard assay in presence of norfloxacin; type: functional
[26] = test system: Staphylococcus aureus; assay: Ratio of MIC for clinical isolates of methicillin-resistant Staphylococcus aureus P4629 to MIC for clinical isolates of methicillin-resistant Staphylococcus aureus P4629 in presence of norfloxacin; type: functional
[27] = test system: Staphylococcus aureus; assay: Antibacterial activity against clinical isolates of methicillin-resistant Staphylococcus aureus ST2071 by checkerboard assay in presence of norfloxacin; type: functional
[28] = test system: Mus musculus; assay: Toxicity in Swiss mouse infected with Staphylococcus aureus MTCC 96 assessed as mortality at 12.5 to 100 mg/kg, ip qd for 7 days post infection; type: organism-based; conditions: in vivo, 168 h
[29] = test system: Staphylococcus aureus; assay: Bactericidal activity against clinical isolates of methicillin-resistant Staphylococcus aureus ST2071 assessed as reduction in viability at 0.5 MIC after 24 hrs by time kill kinetic analysis in presence of norfloxacin relative to control; type: functional
[30] = test system: Staphylococcus aureus; assay: Antibacterial activity against clinical isolates of methicillin-resistant Staphylococcus aureus P4629 by checkerboard assay in presence of norfloxacin; type: functional
[31] = test system: Staphylococcus aureus; assay: Antibacterial activity against clinical isolates of methicillin-resistant Staphylococcus aureus P4629 by broth microdilution assay; type: functional
[32] = test system: Staphylococcus aureus; assay: Potentiation of norfloxacin-induced antibacterial activity against clinical isolates of methicillin-resistant Staphylococcus aureus ST10342 assessed as reduction in norfloxacin MIC by checkerboard assay relative to control; type: functional
[33] = test system: Staphylococcus aureus; assay: Antibacterial activity against Staphylococcus aureus MTCC 96 infected in ip dosed Swiss mouse assessed as reduction in bacterial load in kidney administered qd for 7 days post infection measured 24 hrs after last dose by plate counting analysis; type: functional, organism-based
[34] = test system: Staphylococcus aureus; assay: Antibacterial activity against Staphylococcus aureus MTCC 96 infected in ip dosed Swiss mouse assessed as reduction in bacterial load in liver administered qd for 7 days post infection measured 24 hrs after last dose by plate counting analysis; type: functional, organism-based
[35] = test system: Staphylococcus aureus; assay: Potentiation of norfloxacin-induced antibacterial activity against clinical isolates of methicillin-resistant Staphylococcus aureus ST2071 assessed as reduction in norfloxacin MIC by checkerboard assay relative to control; type: functional
[36] = test system: Staphylococcus aureus; assay: Ratio of MIC for clinical isolates of methicillin-resistant Staphylococcus aureus ST2071 to MIC for clinical isolates of methicillin-resistant Staphylococcus aureus ST2071 in presence of norfloxacin; type: functional
[37] = test system: Mus musculus; assay: Toxicity in Swiss mouse infected with Staphylococcus aureus MTCC 96 assessed as morbidity at 12.5 to 100 mg/kg, ip qd for 7 days post infection; type: organism-based; conditions: in vivo, 168 h
[38] = test system: Staphylococcus aureus; assay: Potentiation of norfloxacin-induced antibacterial activity against clinical isolates of methicillin-resistant Staphylococcus aureus P4423 assessed as reduction in norfloxacin MIC by checkerboard assay relative to control; type: functional
[39] = test system: Staphylococcus aureus; assay: Antibacterial activity against clinical isolates of methicillin-resistant Staphylococcus aureus P4650 by broth microdilution assay; type: functional
[40] = test system: Staphylococcus aureus; assay: Potentiation of norfloxacin-induced antibacterial activity against clinical isolates of methicillin-resistant Staphylococcus aureus ST2071 assessed as norfloxacin MIC by checkerboard assay; type: functional
[41] = test system: Staphylococcus aureus; assay: Ratio of MIC for clinical isolates of methicillin-resistant Staphylococcus aureus P4650 to MIC for clinical isolates of methicillin-resistant Staphylococcus aureus P4650 in presence of norfloxacin; type: functional

Q: How did the “fold change (FC)” value [1] turn out when `COc1cc(OC)c([C@@H]2COc3c(cc(/C=C/C(=O)c4ccco4)c4c3C=CC(C)(C)O4)C2)cc1/C=C/C(=O)c1ccco1` was run?
A: The value was 2.

Q: What about the Activity [2] of the same compound?
A: The Activity was “Dose-dependent effect”.

Q: What about the MIC [3] of the same compound?
A: The MIC was 31.2 µg/mL.

Q: And the Ratio [4]?
A: Its Ratio is “<=4”.

Q: What about the “fractional inhibitory concentration index (FICI)” value [5] of the same compound?
A: The value was 0.375.

Q: And the Activity [6]?
A: The Activity was “Dose-dependent effect”.

Q: What about the MIC [7] of the same compound?
A: Its MIC is 50 µg/mL (≈ 84.4 µM).

Q: What about the “fold change (FC)” value [8] of the same compound?
A: Its value is 8.

Q: What about the “fold change (FC)” value [9] of the same compound?
A: Its value is 8.

Q: What about the “fractional inhibitory concentration index (FICI)” value [10] of the same compound?
A: Its value is 0.375.

Q: And the MIC [11]?
A: Its MIC is 50 µg/mL (≈ 84.4 µM).

Q: What about the “fold change (FC)” value [12] of the same compound?
A: The value was “<=1.52”.

Q: And the “fractional inhibitory concentration index (FICI)” value [13]?
A: Its value is 0.375.

Q: And the MIC [14]?
A: Its MIC is 31.2 µg/mL.

Q: And the MIC [15]?
A: The MIC was 25 µg/mL (≈ 42.2 µM).

Q: What about the MIC [16] of the same compound?
A: Its MIC is 50 µg/mL (≈ 84.4 µM).

Q: What about the MIC [17] of the same compound?
A: The MIC was 31.2 µg/mL.

Q: And the Ratio [18]?
A: The Ratio was “<=4”.

Q: What about the Ratio [19] of the same compound?
A: Its Ratio is “<=4”.

Q: What about the MIC [20] of the same compound?
A: The MIC was 50 µg/mL (≈ 84.4 µM).

Q: And the MIC [21]?
A: Its MIC is 62.5 µg/mL.

Q: And the Activity [22]?
A: Its Activity is “Dose-dependent effect”.

Q: And the “fold change (FC)” value [23]?
A: The value was 16.

Q: And the MIC [24]?
A: Its MIC is 31.2 µg/mL.

Q: And the “fractional inhibitory concentration index (FICI)” value [25]?
A: Its value is 0.375.

Q: And the Ratio [26]?
A: Its Ratio is “<=4”.

Q: And the “fractional inhibitory concentration index (FICI)” value [27]?
A: The value was 0.312.

Q: And the Activity [28]?
A: The Activity was “Non-toxic”.

Q: And the “fold change (FC)” value [29]?
A: The value was under 16.

Q: And the “fractional inhibitory concentration index (FICI)” value [30]?
A: The value was 0.312.

Q: And the MIC [31]?
A: Its MIC is 25 µg/mL (≈ 42.2 µM).

Q: What about the “fold change (FC)” value [32] of the same compound?
A: The value was 8.

Q: What about the Activity [33] of the same compound?
A: Its Activity is “Dose-dependent effect”.

Q: What about the Activity [34] of the same compound?
A: Its Activity is “Dose-dependent effect”.

Q: And the “fold change (FC)” value [35]?
A: The value was 16.

Q: What about the Ratio [36] of the same compound?
A: Its Ratio is “<=4”.

Q: And the Activity [37]?
A: The Activity was “Non-toxic”.

Q: And the “fold change (FC)” value [38]?
A: The value was 8.

Q: What about the MIC [39] of the same compound?
A: The MIC was 25 µg/mL (≈ 42.2 µM).

Q: What about the MIC [40] of the same compound?
A: The MIC was 31.2 µg/mL.

Q: And the Ratio [41]?
A: Its Ratio is “<=4”.
